Measured values published in patent US9296741B2, “Bromodomain inhibitors” (priority 2012, dated 2016).

Tests used:
[1] = molecular target: human BRD4 first bromodomain (BDI_K57-E168) (Homo sapiens (Human), UniProt O60885); assay: TR-FRET bromodomain binding assay, BRD4 first bromodomain
[2] = molecular target: human BRD4 second bromodomain (BDII_E352-M457) (Homo sapiens (Human), UniProt O60885); assay: TR-FRET bromodomain binding assay, BRD4 second bromodomain
[3] = test system: breast cancer cell line MX-1; assay: MX-1 cell line proliferation assay; type: cell-based, human; settings: Homo sapiens, MX1, 72 h; MX-1 cells, 3-day proliferation, Cell Titer Glo; read-out: Cellular proliferation: EC50
[4] = Human liver microsome stability assay; type: in vitro ADME; settings: both sexes, human, microsomes, pH 7.4
[5] = Rat liver microsome stability assay; type: in vitro ADME; settings: rat liver microsomes (male Sprague-Dawley), 0.5 μM test compound, 0.25 mg/mL microsomal protein, pH 7.4, 37° C.; read-out: Stability in rat liver microsomes (t1/2 in minutes)
[6] = Mouse liver microsome stability assay; type: in vitro ADME; settings: male, CD1, mouse, microsomes, pH 7.4

SMILES | Ki [1] [nM] | Ki [2] [nM] | EC50 [3] [nM] | half-life at 0.5 μM [4] [min] | half-life at 0.5 μM [5] [min] | half-life at 0.5 μM [6] [min]
Cn1cc(-c2cc(S(=O)(=O)N3CCCC3)ccc2OCC2CC2)c2cc[nH]c2c1=O [Example 302, 4-[2-(cyclopropylmethoxy)-5-(pyrrolidin-1-ylsulfonyl)phenyl]-6-methyl-1,6-dihydro-7H-pyrrolo[2,3-c]pyridin-7-one] | 5.8 | 3.5 | 16.9 | 5 | 4 | 3
CCS(=O)(=O)c1ccc(OC2CCN(C(C)=O)CC2)c(-c2cn(C)c(=O)c3[nH]ccc23)c1 [Example 303, 4-{2-[(1-acetylpiperidin-4-yl)oxy]-5-(ethylsulfonyl)phenyl}-6-methyl-1,6-dihydro-7H-pyrrolo[2,3-c]pyridin-7-one] | 3.9 | 7.1 | 335 | 42 | 69 | > 120
Cn1cc(-c2cc(S(=O)(=O)N3CCc4ccccc43)ccc2OCC2CC2)c2cc[nH]c2c1=O [Example 305, 4-[2-(cyclopropylmethoxy)-5-(2,3-dihydro-1H-indol-1-ylsulfonyl)phenyl]-6-methyl-1,6-dihydro-7H-pyrrolo[2,3-c]pyridin-7-one] | 327 | 25.7 | 110 | 1 | 2 | 2
Cn1cc(-c2cc(CS(=O)(=O)c3ccccc3)ccc2Oc2ccc(F)cc2F)c2cc[nH]c2c1=O [Example 306, 4-{2-(2,4-difluorophenoxy)-5-[(phenylsulfonyl)methyl]phenyl}-6-methyl-1,6-dihydro-7H-pyrrolo[2,3-c]pyridin-7-one] | 82.2 | 63.9 | 51.6 | 11 | 9 | 3
Cn1cc(-c2cc(S(=O)(=O)N3CCCC3)ccc2OCC2CC2(F)F)c2cc[nH]c2c1=O (stereo not drawn) [Example 307, 4-{2-[(2,2-difluorocyclopropyl)methoxy]-5-(pyrrolidin-1-ylsulfonyl)phenyl}-6-methyl-1,6-dihydro-7H-pyrrolo[2,3-c]pyridin-7-one] | 2.4 | 2.9 | 122 | 3 | 3 | 2

Now from value to molecule:

Ki [1] [nM] | Ki [2] [nM] | EC50 [3] [nM] | half-life at 0.5 μM [4] [min] | half-life at 0.5 μM [5] [min] | half-life at 0.5 μM [6] [min] | SMILES
30.6 | 16.9 | 85.9 | > 120 | > 120 | > 120 | Cn1cc(-c2cc(S(C)(=O)=O)ccc2Oc2ccccc2CCO)c2cc[nH]c2c1=O [Example 309, 4-{2-[2-(2-hydroxyethyl)phenoxy]-5-(methylsulfonyl)phenyl}-6-methyl-1,6-dihydro-7H-pyrrolo[2,3-c]pyridin-7-one]
40.9 | 71.1 | 103 | 8 | 5 | 9 | CN(C)C1CCN(S(=O)(=O)c2ccc(OCC3CC3)c(-c3cn(C)c(=O)c4[nH]ccc34)c2)C1 (stereo not drawn) [Example 310, 4-[2-(cyclopropylmethoxy)-5-{[3-(dimethylamino)pyrrolidin-1-yl]sulfonyl}phenyl]-6-methyl-1,6-dihydro-7H-pyrrolo[2,3-c]pyridin-7-one]
14.1 | 19 | 67.5 | 56 | 32 | 9 | CCS(=O)(=O)c1ccc(OC2CCN(C(=O)OC(C)(C)C)CC2)c(-c2cn(C)c(=O)c3[nH]ccc23)c1 [Example 312, tert-butyl 4-[4-(ethylsulfonyl)-2-(6-methyl-7-oxo-6,7-dihydro-1H-pyrrolo[2,3-c]pyridin-4-yl)phenoxy]piperidine-1-carboxylate]
15.8 | 6.1 | 50.9 | 5 | 4 | 3 | Cn1cc(-c2cc(S(=O)(=O)Nc3ccccc3)ccc2OCC2CC2)c2cc[nH]c2c1=O [Example 313, 4-(cyclopropylmethoxy)-3-(6-methyl-7-oxo-6,7-dihydro-1H-pyrrolo[2,3-c]pyridin-4-yl)-N-phenylbenzenesulfonamide]
